According to article PMC11111691, “Cystine-knot peptide inhibitors of HTRA1 bind to a cryptic pocket within the active site region” (Nature Communications, 2024):

Key:
Format in all cases: biochemical
[1] = molecular target: T1, HTRA1^FL, HTRA1^PD, HTRA1^PD/PDZ (Homo sapiens, UniProt Q92743); assay: Fluorescence-quenched casein-BODIPY assay, HTRA1 constructs; settings: 2 µM CKP (0.5 mM 7mer-ABP)
T1 construct: made in house; host or cells: Trichoplusia ni cells (FL); E. coli (PD, PD/PDZ)
Protocol: (§1) The fluorescence-quenched casein-BODIPY® assay (EnzCheck®, Thermo Fisher Scientific) was carried out in TNC buffer (50 mM Tris pH 8.0, 200 mM NaCl, 0.25% CHAPS) at 37 °C in 96-well black optical bottom plates (Nalge Nunc Int., Rochester, NY). Enzymes were incubated with CKPs or DMSO control for 15 min prior to addition of casein substrate. The reactant concentrations were: 30 nM HTRA1^FL, 30 nM HTRA1^PD/PDZ, 30 nM HTRA1^PD, 30 nM HTRA2^PD/PDZ, 30 nM HTRA3^FL, 100 nM HTRA3^PD/PDZ, 30 nM HTRA4^FL, 300 nM HTRA4^PD/PDZ, 2 µM CKP, 5 µg/ml casein substrate and 0.25% DMSO. For selectivity assays, 0.5 mM 7mer-ABP was used as positive control. The kinetics of substrate cleavage were measured at 37 °C on a SpectraMax M5 microplate reader (Molecular Devices) with excitation of 485 nm and emission of 530 nm for 30 min (HTRA1 and HTRA2) or 5 h (HTRA3 and HTRA4). The determined initial rates of cleavage were expressed as percent of control (DMSO control) after subtracting the baseline rates (without enzyme).

HTRA2^PD/PDZ [2] = molecular target: T2, HTRA2^PD/PDZ (Homo sapiens, UniProt O43464); assay: Fluorescence-quenched casein-BODIPY assay, HTRA2; settings: 30 nM HTRA2^PD/PDZ, 2 µM CKP (0.5 mM 7mer-ABP)
T2 construct: Human HTRA2^PD/PDZ (A134-E458) was from R & D Systems; purchased R & D Systems 1458-HT-100
T2 sequence (O43464 134-458): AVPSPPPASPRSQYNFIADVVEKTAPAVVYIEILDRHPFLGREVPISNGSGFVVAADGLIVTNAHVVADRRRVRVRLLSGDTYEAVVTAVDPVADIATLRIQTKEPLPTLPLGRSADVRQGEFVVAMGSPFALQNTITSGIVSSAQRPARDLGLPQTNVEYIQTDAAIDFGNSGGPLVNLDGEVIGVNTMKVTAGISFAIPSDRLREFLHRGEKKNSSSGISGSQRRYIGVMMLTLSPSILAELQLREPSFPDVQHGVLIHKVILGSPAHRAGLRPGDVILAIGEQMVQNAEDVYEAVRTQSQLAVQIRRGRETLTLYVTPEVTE
Protocol: as §1

HTRA2^PD/PDZ [3] = molecular target: T2, HTRA2^PD/PDZ; assay: H2-OPT selectivity assay, HTRA2; settings: 1 nM HTRA2^PD/PDZ, 2 µM CKP (0.5 mM 7mer-ABP), 5 µM H2-OPT
Protocol: Assays with the fluorescence-quenched synthetic substrate Mca-IRRVSYSFK(Dnp)K (H2-OPT)[38],[60] were carried out essentially as described. CKP stock solutions in DMSO were diluted in TNC buffer (dilution series for IC50 determinations, or final concentration of 2 µM for selectivity assay or as indicated for HTRA1/4 mutants) and incubated with enzymes in 96-well black optical bottom plates for 60 min at 37 °C. For selectivity experiments we used the 7mer-ABP as inhibitor, which was incubated with the proteases for 15 min at 37 °C. A 10 mM stock solution of H2-OPT in DMSO was diluted with water, prewarmed at 37 °C and then added to the CKP-enzyme mixtures. The final concentrations in the reaction mixtures were: 1 nM HTRA1^FL, 3 nM HTRA1^PD/PDZ, 1 nM HTRA1^PD, 1 nM HTRA2^PD/PDZ, 3 nM HTRA3^FL, 60 nM HTRA3^PD/PDZ, 6 nM HTRA4^FL, 1 µM HTRA4^PD/PDZ, 1 nM mouse HTRA1^PD, 25 nM HTRA1^PD-A202Y, 1 µM HTRA4^PD/PDZ-Y200A, 0.5 mM 7mer-ABP, 5 µM H2-OPT, and 0.25% DMSO. The kinetics of substrate cleavage was measured at 37 °C on a SpectraMax M5 microplate reader with excitation of 328 nm and emission of 393 nm. The determined initial rates of cleavage were expressed as percent of control (DMSO control) after subtracting the baseline rates (without enzyme). IC50 values were determined by Sigmoidal 4PL modeling of multiple data points from serial dilutions of CKPs using Prism 9 software (GraphPad). […]

Inhibition of HTRA1^FL, casein-BODIPY cleavage (% of control) ([1]; 30 nM HTRA1^FL, 5 µg/ml casein, 37 °C): significantly inhibited | Inhibition of HTRA1^PD/PDZ, casein-BODIPY cleavage (% of control) ([1]; 30 nM HTRA1^PD/PDZ): significantly inhibited | Inhibition of HTRA2^PD/PDZ, casein-BODIPY cleavage (% of control) (HTRA2^PD/PDZ [2]): significantly inhibited | Inhibition of HTRA2^PD/PDZ, H2-OPT (% of control) (HTRA2^PD/PDZ [3]): significantly inhibited
Substance: DPMFKLV-phosphonate [7mer-ABP]
